According to patent US20200199530A1, “METHODS OF DIFFERENTIATING STEM CELL-DERIVED ECTODERMAL LINEAGE PRECURSORS” (MEMORIAL SLOAN-KETTERING CANCER CENTER, priority 2017, published 2020):
“Also recorded” adds a separate entry of the source. Ends that are not written are not given here.

Experiments:
Assay type in all cases: cell-based, human
[1] = system: hPSC-derived pituitary cells; assay: Stimulation of hormone release in vitro (ELISA); conditions: day 30 cells, CRF 1 μM, Somatocrinin 1 μg/ml, vs solvent control; for ACTH release: Stressin I 2 μM, Urocortin 500 nM, Ghrelin 1 μM
Protocol: To stimulate hormone release in vitro, cells were differentiated in 24 well plates as described above. On day 30 of differentiation cells were washed once with PBS and 250 μl of fresh medium containing either the solvent or the stimulant were added to each well. After 12 h the supernatant was removed and centrifuged for 5 min at 2000 g to pellet debris. Supernatant was transferred into fresh reaction tubes, flash frozen and stored at −80° C. until ELISA measurements. Stimulants used were: CRF (Tocris, 1 μM), Stressin I (Tocris, 2 μM), Ghrelin (Tocris, 1 μM), Somatocrinin (Accurate Chemical, 1 μg/ml), Nafarelin (Tocris, 1 μM) and Urocortin (Tocris, 500 nM).
Hormone concentration in the supernatant of cells or in animal serum was analyzed using ELISA measurements. Hormone concentration in the cell culture supernatant was assessed using traditional single hormone ELISA Kits according to the manufactures manual. ACTH (Calbiotech, detects rat and human ACTH), hGH (R&D Systems, human specific), FSH (Calbiotech, FSH (lumELISA, human specific) and corticosterone (Abcam). Plates were read using an EnSpire Multimode plate reader (PerkinElmer). Hormone concentration in in vivo samples was analyzed using either traditional ELISA (for ACTH only, serum diluted 1:2) or species specific (human or rat) Milliplex multiplex ELISA using Luminex technology (Millipore). Magnetic bead-based sandwich immunoassay was performed according to the manufactures manual. 25 μl of undiluted serum samples in duplicate wells were analyzed by Luminex FlexMap 3D (Luminex Corp, Austin, Tex.). Cytokine concentrations were determined by Luminex Xponent 4.1 and EMD-Millipore Milliplex Analyst v5.1 using 5-p log analysis.

H9 SIX1 H2B::GFP cells = assay: LOPAC small-molecule screen for enhancers of placode fate and hit validation; conditions: for validation of primary hits: percentage of cells expressing SIX1: CP protocol, FIG. 6C, 13A/13B, 44A/44B; for expression of SIX1 relative to control differentiations (primary screen): LOPAC library, 1 μM and 10 μM, added day 3, read day 6
Protocol: (§1) H9 SIX1 H2B::GFP cells were differentiated into lens placode as described earlier and plated on 96 well plates coated with Matrigel. On day 3 (day before SIX1 H2B::GFP can be detected in individual cells) the medium was additionally supplemented with compounds from the LOPAC library. Two different concentrations (1 μM and 10 μM) per compound were used. Medium was not changed until day 6 of differentiation. On day 6 of differentiation plates were washed once with PBS and cells were fixed with 4% PFA. To increase the signal intensity over background, the cells were stained using an antibody against GFP. After labeling with an appropriate Alexa488-conjugated secondary antibody and the nuclear counterstain DAPI, cells were analyzed using the Meta Express software (Meta-morph) by calculating the percent nuclear GFP signal over DAPI positive cells.

[2] = system: hPSC (SIX1::H2B-GFP reporter); assay: Cranial placode induction in E6 media, SIX1 positive cells
Protocol: (§2) All differentiations starting from E8 were dissociated into single cells using EDTA and re-plated at high density in E8 with the ROCK inhibitor (Tocris). Cells were typically seeded at a density of 200,000 cells/cm^2 on Matrigel coated dishes. Switching from E8 to E6 triggered differentiations (i.e. d0). Neuroectoderm (NE) formation was generated by culturing the cells in E6 with 10 μM SB and 500 nM LDN until d12. Neural Crest (NC) was first treated with 10 μM SB, 600 nM CHIR and 1 ng/ml BMP4 from d0-d2. At d3, cells were maintained in 10 μM SB with 1.5 uM CHIR until d12. Lens placode was first treated with 10 μM SB and 5 ng/ml BMP4 from d0-d2. At d3, cells were maintained in 10 μM SB with 50 ng/ml FGF2 until d12. Trigeminal placode was first treated with 10 μM SB and 5 ng/ml BMP4 from d0-d2. At d2, 600 nm CHIR was added. At d3, cells were treated with 10 μM SB and 600 nM CHIR. From d4-d12, cells were treated with 10 μM SB. Finally, non-neural ectoderm (NNE) was treated with 10 μM SB, 10 μM SU5402 and 10 ng/ml BMP4 from d0-d1, and then treated with 10 μM SB and 5 ng/ml BMP4 from d2-d12.
Cranial Placode differentiation. Day 0 (0-24 hrs): Add E6 media containing 5 ng/ml BMP4+10 μM SB to cells.
Day 1 (24-48 hrs): Change media with E6 media containing 5 ng/ml BMP4+10 μM SB to cells.
Day 2 (48-72 hrs): Change media with E6 media containing 5 ng/ml BMP4+10 μM SB to cells. […]

[3] = system: hPSC differentiated towards CP (SIX1); assay: Phenanthroline in CP differentiation: marker expression and SIX1 positive cells; conditions: for SIX1 positive cells: CP protocol, FIG. 6E, Phenanthroline alone = absence of FGF2, control 18%
Protocol: as §2, §1

hPSCs = assay: Tolerability of small molecules during E6-based differentiation; conditions: had to be re-titrated
[4] = system: hPSCs (TFAP2A expression); assay: BMP4 induction of TFAP2A and non-neural ectoderm in E6 media
Protocol: as §2, with “Finally, non-neural ectoderm (NNE) was treated with 10 μM SB, 10 μM SU5402 and 10 ng/ml BMP4 from d0-d1, and then treated with 10 μM SB and 5 ng/ml BMP4 from d2-d12.” left out
Human embryonic (H9, H1, HUES8, HUES6 and MEL1) and induced pluripotent stem cells (BJ1, MRC5 and SeV6) were adapted in the E8 media for a minimum of 4 passages (˜2 weeks) and induced to differentiate into the four ectodermal lineages. Bulk differentiations were dissociated using Accutase for 30 min at 37° C. at day 10 of differentiation and seeded in 96 well imaging plates. Cells were fixed two days later using 4% paraformaldehyde and permeabilized using 0.5% Triton-X and maintained in 0.2% Tween all diluted with PBS. Cells were then stained using antibodies against various markers indicative of the ectodermal lineages. Plates were scanned and measurements recorded using an IN Cell Analyzer 6000 (GE) and quantified using the Columbus image analysis software (PerkinElmer). Experiments involving these cell lines were biologically replicated (n=4) and technically replicated (n=2 per biological replicate).

[5] = system: hPSC (SOX10::GFP reporter); assay: Neural crest induction in E6 media, SOX10 positive cells
Protocol: as §2
Neural Crest differentiation. Day 0 (0-24 hrs): Add E6 media containing 1 ng/ml BMP4+10 μM SB+600 nM CHIR to cells.
Day 1 (24-48 hrs): Change media with E6 media containing 1 ng/ml BMP4+10 μM SB+600 nM CHIR to cells. […]

[6] = three-day pulse with SB431542 in E6

For “CRF: stimulant of hormone release (Tocris, 1 μM) (SEEPPISLDLTFHLLREVLEMARAEQLAQQAHSNRKLMEII; ends and bridges not checked; UniProt P06850 154-194, looked up)”, the ACTH release [1] was “induced release of ACTH; also recorded: specifically induced” and the GH release [1] was “not”.

In the case of “Somatocrinin: stimulant of hormone release (Accurate Chemical, 1 μg/ml) (YADAIFTNSYRKVLGQLSARKLLQDIMSRQQGESNQERGARARL; ends and bridges not checked; UniProt P01286 32-75, looked up)”, the ACTH release [1] is reported as “not”, the ACTH release ([1]; listed as somatocrinin) is reported as “did not trigger ACTH release” and the GH release [1] is reported as “induced”. For the same molecule, the GH release ([1]; listed as somatocrinin) was “triggered robust increase in GH release”.

In the case of `CN1CCC(c2c[nH]c3ccc(O)cc23)CC1` [BRL-5443], the “validation of primary hits: percentage of cells expressing SIX1” value (H9 SIX1 H2B::GFP cells) is reported as “increased the level of SIX1 expressing CP precursor cells”, the “validation of primary hits: percentage of cells expressing SIX1” value (H9 SIX1 H2B::GFP cells; listed as BRL-54443) is reported as “did not produce a significant difference” and the “expression of SIX1 relative to control differentiations (primary screen)” value (H9 SIX1 H2B::GFP cells) is reported as “increased expression of SIX1 above the levels observed in control differentiations”.

“Ghrelin: stimulant used (Tocris, 1 μM) (GSSFLSPEHQRVQQRKESKKPPAKLQPR; ends and bridges not checked; UniProt Q9UBU3 24-51, looked up)” was tested, and the ACTH release [1] was “did not trigger ACTH release and not”.

FGF2: activator of FGF signaling was tested, and the “SIX1 positive cells after addition of FGF agonist” value ([2]; E6 with SB431542 and BMP pulse, FIG. 2G/38B) was roughly 50% and the SIX1 positive cells [3] was 34%.

`c1cnc2c(c1)ccc1cccnc12` [Phenanthroline] was tested, and the “validation of primary hits: percentage of cells expressing SIX1” value (H9 SIX1 H2B::GFP cells) was “confirmed to reliably enhance the percentage of cells expressing Six1; also recorded: confirmed to trigger a robust increase in the percentage of cells expressing SIX1; also recorded: large majority of cells”, the “expression of SIX1 relative to control differentiations (primary screen)” value (H9 SIX1 H2B::GFP cells) was “increased expression of SIX1 above the levels observed in control differentiations” and the SIX1 positive cells [3] was 69%. For the same molecule, the “fold increase of SIX1 positive cells versus control” value ([3]; absence of FGF2, 69% versus 18%) was roughly 4 fold and the “expression of other lineage markers (Sox10, T, MyoD, Sox17)” value ([3]; differentiation towards CP, FIG. 6D) was “without inducing the expression of other lineage markers”.

For `Cc1c[nH]c(/C=C2\C(=O)Nc3ccccc32)c1CCC(=O)O` [SU5402, 2-[(1,2-Dihydro-2-oxo-3H-indol-3-ylidene)methyl]-4-methyl-1H-pyrrole-3-pr-opanoic acid], the “cell killing at the original (KSR protocol) concentration” value (hPSCs) was “effectively killed the cells”.

In the case of “Urocortin: stimulant of hormone release (Tocris, 500 nM) (DNPSLSIDLTFHLLRTLLELARTQSQRERAEQNRIIFDSV; ends and bridges not checked; UniProt P55089 83-122, looked up)”, the ACTH release [1] is reported as “specifically induced” and the ACTH release ([1]; listed as urocortin) is reported as “induced release of ACTH”.

B1: BMP4: activator of BMP signaling (protein, UniProt P12644 293-408, looked up)
Bone morphogenetic protein 4: SPKHHSQRARKKNKNCRRHSLYVDFSDVGWNDWIVAPPGYQAFYCHGDCPFPLADHLNSTNHAIVQTLVNSVNSSIPKACCVPTELSAISMLYLDEYDKVVLKNYQEMVVEGCGCR
In the case of B1, the “BMP4 concentration optimal for CP induction (dose-response studies)” value [2, 6] is reported as “around 5 ng/ml”, the “NNE marker phenotype at high BMP4 concentration” value ([4]; 20 ng/ml) is reported as “cells become TFAP2A+ and lack expression of SOX10 and SIX1; also recorded: derivation of TFAP2A+, PAX6−, SIX1−, and SOX10− NNE is achieved” and the “percentages of TFAP2A+ cells” value ([4]; with addition of BMP4, range across ESC/iPSC lines, 0%-5% without BMP4) is reported as 56%-95%. The TFAP2A expression ([4]; within 3 days of treatment, dose-dependent) was “rapidly upregulated”, the “SOX10 positive NC population” value ([5]; short pulse 1 ng/ml in combination with WNT activation) was “nearly homogenous SOX10 positive NC population; also recorded: nearly homogeneous SOX10+ NC population” and the “BMP4 concentration giving strong NC induction (dose-response studies)” value [5, 6] was “around 1 ng/ml”.
